Laboratory results taken from patent publication US11001892B2, “Methods of diagnosing endometriosis” (The Regents of the University of California, priority 2007, dated 2021).
Blank lines part the entries; values can stand above or below the compound they belong to.

Columns and labels:
ERK = ERK 1/2 phosphorylation in cultured eutopic endometrial stromal cells; assay type: cell-based, human; conditions: eutopic endometrial stromal cells from patients with endometriosis; treatment within 60 min; level then similar to cells from patients without endometriosis
From the text: Growth of ectopic endometrial tissues in the pelvic cavity, which is a hallmark of endometriosis, is associated with elevated levels of inflammatory cytokines and increased number of activated macrophages in the peritoneal environment. […] In this example, the expression of inflammatory-associated genes in cultured eutopic endometrial stromal cells from women with versus without endometriosis was examined using quantitative RT-PCR. […] Interleukin-1 beta and cyclooxygenase-2 mRNA expression were similar in cultured endometrial stromal cells from women with vs. without endometriosis. Cell proliferation was similar in eutopic endometrial stromal cells from women with versus without endometriosis when cultured in 0%, 2%, or 10% charcoal stripped FBS-containing medium or in the presence of insulin. Increased IL-8 production in endometriosis is accompanied by a strong increased phosphorylation of ERK ½ (P=0.04), a signaling molecule shown to activate IL-8 expression in endometrial stromal cells. […] Since phosphorylation of ERK and IL-8 expression increases cell migration and invasion of endometrial stromal cells, dysregulation of MAPK activity and IL-8 expression in the eutopic endometrial stromal cells of women with endometriosis may be associated with the pathophysiology and spread of the disease.

[1] = tested on: pro-MMP-3 or pro-MMP-7 secretion; conditions: in vitro treatment of endometrial tissues from women with endometriosis; cited from earlier work
[2] = tested on: eutopic endometrium of women with endometriosis; conditions: cited from earlier work
[3] = tested on: endometrial stromal fibroblasts (ESFs); test: Regulation of steroidogenic enzymes in ESFs by cAMP and/or E2/P4, Q-PCR; assay type: cell-based, human
Method: ESFs were isolated from endometrial biopsies from 15 women with and 7 women without endometriosis. […] IGFBP1 and PRL protein secretion was measured by ELISA. […] Purity of ESF populations at passage 2 was evaluated by immunohistochemistry using cytokeratin, vimentin and CD45 antibodies. Endometrial tissue biopsies were obtained from mid-secretory phase endometrium from 5 women without and 5 women with severe endometriosis.

TOB1 = conditions: cultured human endometrial stromal cells from women with endometriosis; cited from earlier work

- Cyp17A1 (P450c17) expression ([3]; ESFs from women with vs without endometriosis): slightly down-regulated
- Aromatase (Cyp19A1) regulation ([3]; ESFs, cAMP effect in women with endometriosis): not regulated
- 3βHSD1 expression ([3]; P4 stimulated ESFs from women with endometriosis): Down regulation
Compound: CC(=O)[C@H]1CC[C@H]2[C@@H]3CCC4=CC(=O)CC[C@]4(C)[C@H]3CC[C@]12C [P4, progesterone]
- high basal ERK phosphorylation (ERK): successfully diminished
- suppression of pro-MMP-3 or pro-MMP-7 secretion [1]: fails to fully suppress
- prevention of the ability of tissues to establish experimental disease in mice ([2]; endometrial tissues from women with endometriosis treated in vitro): fails to prevent

Compound: Cn1c(C#N)ccc1-c1ccc2c(c1)C(C)(C)OC(=S)N2 [tanaproget]
- progesterone insensitivity of eutopic endometrium of women with endometriosis ([2]; endometrial cell culture and nude mouse models): could be corrected

Compound: IL-1β: a central cytokine in endometriosis
- TOB1 expression (TOB1): reduced TOB1 expression
